Measurements reported in US11242327B2, “Analgesic compounds” (RECURIUM IP HOLDINGS, LLC, priority 2017, dated 2022).
Where a name gives a salt, the structure may show the parent alone.

What was measured:
male ICR mice = assay: Formalin Paw Test, mouse, intraperitoneal; type: in vivo; conditions: 60 mg/kg; for Early Phase, seconds of paw licking: early/acute phase (0-10 minutes); for Late Phase, seconds of paw licking: late/tonic phase (10-35 minutes)
Procedure: (§1) One test compound or the vehicle was administered to each rat or mouse in each test group (8 rats or mice per group). Non-fasted male Sprague-Dawley rats weighing 200-225 g or non-fasted male ICR mice weighing 23±3 g were used. […] Responses were measured every 5 minutes after the formalin injection for 35 minutes. The results in Table 2 are for oral administration in rat and the results in Table 3 are for intraperitoneal administration in mouse. In Tables 2 and 3, 'A' designates <70 seconds of paw licking, 'B' designates >70 and <165 seconds of paw licking, and 'C' designates >165 seconds of paw licking.

Opiate μ = Opiate μ (Homo sapiens, UniProt P35372); assay: NSAIDS and Opioid Receptor Test: Opiate μ; type: binding
Opiate μ, sequence (P35372 whole entry): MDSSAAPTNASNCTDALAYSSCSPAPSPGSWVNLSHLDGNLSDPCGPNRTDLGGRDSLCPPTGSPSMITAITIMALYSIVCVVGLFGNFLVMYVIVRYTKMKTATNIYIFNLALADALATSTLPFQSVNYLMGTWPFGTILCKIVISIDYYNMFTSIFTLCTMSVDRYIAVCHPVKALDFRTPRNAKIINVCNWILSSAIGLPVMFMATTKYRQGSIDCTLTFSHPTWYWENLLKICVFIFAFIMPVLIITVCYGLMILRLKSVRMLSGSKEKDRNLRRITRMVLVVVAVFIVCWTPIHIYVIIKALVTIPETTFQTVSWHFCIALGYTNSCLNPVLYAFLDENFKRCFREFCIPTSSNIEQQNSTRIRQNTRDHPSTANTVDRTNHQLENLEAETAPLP
Procedure: (§2) Compounds were screened as DMSO solutions at 10 μM, 100 μM, or 200 μM and values represent percent inhibition of control-specific binding. […] As NSAID and opioid mechanisms of action are precluded, a person of ordinary skill in the art understands that undesirable side effects associated with inhibition of COX receptors in NSAIDs and activation of opiate receptors in opioids can be avoided by compounds described herein. Furthermore, opioids are known to lose their analgesic potency after to continued administration. (See Benyamin, et al. “Opioid Complications and Side Effects” Pain Physician 11 (2008): S105-S120). As the data indicates compounds described herein have a different mechanism action compared to opioids, a person of ordinary skill in the art would appreciate that compounds described herein would not be expected to lose their analgesic potency like opioids after continued admininistration.

male Sprague-Dawley rats [1] = assay: Post-Incisional (Brennan) Pain Test; type: in vivo; conditions: rat, oral; for cumulative pain score, 4 h: 4 h post-dosing; for cumulative pain score, 24 h: 24 h post-dosing
Procedure: Incisional pain was induced in non-fasted male Sprague-Dawley rats weighing 180-300 g by making a 1-cm plantar incision in the left hind paw and is designed to mimic pain and sensitivity similar to what is reported by patients after surgery. Dosing occurred at the time of incision and spontaneous pain was measured 4 and 24 hours post-dosing using a cumulative pain score. The unrestrained animals were placed on a metal mesh platform and allowed to acclimate for about 15 min/ Each animal was closely observed during a 1-min period repeated every 5 min for 1 h (12 times total). Depending on the position in which the foot was found during the scoring period, a score of 0, 1, or 2 was given. Full weight bearing of the foot (score=0) was present if the skin on the plantar surface of the paw wound was blanched or distorted by the mesh. If the foot was completely off the mesh, or one or more instances of licking or flinching was observed, a score of 2 was recorded and the licking or flinching was noted but not counted. If the plantar surface of the paw touched the mesh without blanching or distorting, a score of 1 was given. The sum of the 12 scores obtained during the 1 h session was calculated (maximum score=24) for each animal. Observations were made during hours 4 and 24. Test articles were administered orally at concentrations of 10, 30 or 100 mg/kg and ketoprofen was administered subcutaneously at a concentration of 10 mg/kg. The control group received the vehicle (sterile water). In Table 6, ‘A’ designates a cumulative pain score of ≤11, ‘B’ designates >11 and ≤16, and ‘C’ designates >16.
The results provided in Table 6 are for oral administration in rats.

adult male C57BL/6 mice = assay: Conditioned Place Preference (Abuse) Test; type: in vivo, mouse
Description: A conditioned place preference (CPP) model was used to assess the reward properties of compounds of formulae (Ie), or a pharmaceutically acceptable salt of any of the foregoing, in adult male C57BL/6 mice. The CPP model apparatus consisted of a Plexiglas© test unit having three (A, B, C) compartments (9 cm×9 cm×16 cm) configured to allow access to all chambers. Compartments A and C had textually distinct flooring and wall marking. Mice were placed in the middle compartment with free access to the other compartments. On day 1 and 2, the “naive chamber preference” was assessed by placing the animal in the middle chamber twice a day (AM and PM) for 30 min on two consecutive days, with the chamber showing the greatest residence time being called the “preferred chamber”. On “drug pairing days” (days 5, 6, 7 and 8) mice were injected IP with vehicle (50 mM citric acid) in the AM in the preferred chamber and the drug/vehicle in the afternoon in the non-preferred chamber for four consecutive days. On the morning of day 9 (the day after the last drug pairing), the “drug chamber preference” was assessed by placing the mouse (absent any injection) in the middle chamber, with free access to all chambers for 30 minutes. This was repeated five days later (day fourteen), with no intervening drug treatment.
The time spent on days 9 and 14 (e.g. […] respectively after the last drug treatment) in the drug associated chamber was the test datum and is represented in FIG. 1. […] In contrast, there was no increase in the non-preferred chamber residence time when the least-preferred chamber was paired with saline, APAP or test compounds 2 or 28 on either days 9 or 14, or days 0 or 5.

Opiate κ = Opiate κ (Homo sapiens, UniProt P41145); assay: NSAIDS and Opioid Receptor Test: Opiate κ; type: binding
Opiate κ, sequence (P41145 whole entry): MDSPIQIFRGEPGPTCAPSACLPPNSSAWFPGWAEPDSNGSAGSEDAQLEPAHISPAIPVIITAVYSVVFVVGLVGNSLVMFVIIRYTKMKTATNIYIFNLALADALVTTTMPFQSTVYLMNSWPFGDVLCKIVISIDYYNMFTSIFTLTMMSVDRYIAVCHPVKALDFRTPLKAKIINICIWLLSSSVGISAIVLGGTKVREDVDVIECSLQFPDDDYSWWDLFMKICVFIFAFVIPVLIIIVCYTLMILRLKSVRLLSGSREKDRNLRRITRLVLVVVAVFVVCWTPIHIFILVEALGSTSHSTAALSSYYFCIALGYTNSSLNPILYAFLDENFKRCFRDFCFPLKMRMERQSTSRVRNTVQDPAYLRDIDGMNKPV
Procedure: as §2

Opiate δ2 = Opiate δ2 (Homo sapiens, UniProt P41143); assay: NSAIDS and Opioid Receptor Test: Opiate δ2; type: binding
Opiate δ2, sequence (P41143 whole entry): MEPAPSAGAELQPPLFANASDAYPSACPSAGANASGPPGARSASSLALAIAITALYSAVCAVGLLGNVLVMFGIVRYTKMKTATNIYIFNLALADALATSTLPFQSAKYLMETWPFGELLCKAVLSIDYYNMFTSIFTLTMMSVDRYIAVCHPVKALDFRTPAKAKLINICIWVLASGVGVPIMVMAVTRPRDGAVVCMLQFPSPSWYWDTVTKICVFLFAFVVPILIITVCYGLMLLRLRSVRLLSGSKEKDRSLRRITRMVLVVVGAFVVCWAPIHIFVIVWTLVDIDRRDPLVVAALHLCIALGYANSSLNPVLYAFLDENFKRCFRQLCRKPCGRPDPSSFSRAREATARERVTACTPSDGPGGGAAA
Procedure: as §2

COX-1 = COX-1 (Homo sapiens, UniProt P23219); assay: NSAIDS and Opioid Receptor Test: COX-1; type: biochemical
COX-1, sequence (P23219 24-599): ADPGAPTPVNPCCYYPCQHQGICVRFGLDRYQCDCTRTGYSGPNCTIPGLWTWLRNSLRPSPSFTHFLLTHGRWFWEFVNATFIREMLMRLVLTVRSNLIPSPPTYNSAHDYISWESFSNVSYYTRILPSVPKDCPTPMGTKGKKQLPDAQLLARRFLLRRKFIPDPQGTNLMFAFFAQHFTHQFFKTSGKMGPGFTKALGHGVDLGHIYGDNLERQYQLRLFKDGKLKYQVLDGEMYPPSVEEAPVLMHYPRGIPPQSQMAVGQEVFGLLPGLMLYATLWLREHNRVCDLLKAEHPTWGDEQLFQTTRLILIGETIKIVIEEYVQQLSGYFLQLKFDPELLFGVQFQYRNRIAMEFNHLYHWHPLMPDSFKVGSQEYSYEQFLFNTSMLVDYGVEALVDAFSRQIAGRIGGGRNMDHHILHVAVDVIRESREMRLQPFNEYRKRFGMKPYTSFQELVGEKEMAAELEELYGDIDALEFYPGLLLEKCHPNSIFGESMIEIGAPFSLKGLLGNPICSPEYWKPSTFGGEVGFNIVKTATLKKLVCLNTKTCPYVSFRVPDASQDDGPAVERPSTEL
Procedure: as §2

Opiate δ1 = Opiate δ1 (Homo sapiens, UniProt P41143); assay: NSAIDS and Opioid Receptor Test: Opiate δ1; type: binding
Opiate δ1, sequence (P41143 whole entry): as the sequence (P41143 whole entry) above
Procedure: as §2

male Sprague-Dawley rats [2] = assay: UVB Inflammatory Pain Test (thermal hyperalgesia); type: in vivo; conditions: rat, oral, 300 mg/kg
Procedure: UVB irradiation to the surface of the hind paw was used to induce cutaneous inflammatory pain in non-fasted male Sprague-Dawley rats weighing 175-300 g. On Day −3, animals were restrained and the plantar surface of the left hind paw was exposed to 350 mJoules/cm^2 of UVB irradiation using a narrow band UVB light source (Daavlin®, Bryan, Ohio). Following UVB irradiation, animals were returned to their home cage. Thermal hyperalgesia was assessed prior to dosing and approximately 1, 2, and 4 hours after dosing on Day 0 using a radiant heat plantar test apparatus (IITC Life Sciences©; Woodland Hills, Calif.). Animals were placed in individual acrylic chambers on a glass platform warmed to 30±2° C. and allowed to acclimate to their surroundings for a minimum of 15 minutes before testing. The stimulus was presented to the plantar surface and the timer was activated. The stimulus intensity was set such that pre-injury paw withdrawal latencies were approximately 12-18 seconds. Paw withdrawal latency values were recorded at the first observed nocifensive behavior (paw withdrawal, flinching, biting and/or licking). Three paw withdrawal latencies were measured for each hind paw per time point. The mean of the 3 values was taken as the paw withdrawal latency for that time point. A maximum cutoff latency of 30 seconds was used to prevent injury to the animal. The mean and standard error of the mean (SEM) were determined for each paw for each treatment group at each time point. Test compounds were administered orally at concentrations of 3, 10, 30 or 100 mg/kg; celecoxib was administered orally at a concentration of 30 mg/kg; and acetaminophen was administered orally at a concentration of 300 mg/kg. The control group received the vehicle (sterile water). In Table 4, ‘A’ designates >8 seconds of paw withdrawal latency, ‘B’ designates >6 and <8 seconds of paw withdrawal latency, and ‘C’ designates <6 seconds of paw withdrawal latency.
The results provided in Table 4 are for oral administration in rats. […] Furthermore, while acetaminophen was dosed at 300 mg/kg, compounds of Formulae (Ie), (Ih) and (Ik), or a pharmaceutically acceptable salt of any of the foregoing, were dosed at 3 mg/kg, 10 mg/kg and 100 mg/kg.

COX-2 = target: T1, COX-2 (Homo sapiens, UniProt P35354); assay: NSAIDS and Opioid Receptor Test: COX-2; type: biochemical
T1 sequence (P35354 18-604): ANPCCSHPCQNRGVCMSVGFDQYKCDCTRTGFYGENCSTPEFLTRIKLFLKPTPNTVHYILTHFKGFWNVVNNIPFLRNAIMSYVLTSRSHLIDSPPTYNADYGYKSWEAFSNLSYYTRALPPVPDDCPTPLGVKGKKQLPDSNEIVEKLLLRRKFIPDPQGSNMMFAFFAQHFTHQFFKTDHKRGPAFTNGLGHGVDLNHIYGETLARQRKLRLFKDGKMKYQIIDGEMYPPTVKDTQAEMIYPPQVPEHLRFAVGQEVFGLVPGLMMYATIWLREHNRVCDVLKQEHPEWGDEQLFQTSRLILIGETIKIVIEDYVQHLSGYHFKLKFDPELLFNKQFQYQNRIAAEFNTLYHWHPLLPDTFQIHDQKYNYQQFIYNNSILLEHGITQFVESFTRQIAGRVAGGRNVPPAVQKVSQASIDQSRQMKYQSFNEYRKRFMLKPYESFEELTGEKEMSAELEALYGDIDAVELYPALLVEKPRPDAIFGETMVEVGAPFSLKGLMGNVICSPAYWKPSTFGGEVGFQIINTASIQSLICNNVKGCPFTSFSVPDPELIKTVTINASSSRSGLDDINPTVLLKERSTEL
Procedure: as §2

male Sprague-Dawley rats [3] = assay: Formalin Paw Test, rat, oral; type: in vivo; conditions: 30 mg/kg
Procedure: as §1

[4] = Bioavailability Test (rat pharmacokinetics); type: in vivo
Procedure: Oral bioavailability of compounds of Formulae (Ie), (Ih), (Ik), and (Ir), or a pharmaceutically acceptable salt of any of the foregoing, were evaluated in fasted male Sprague-Dawley (SD) rats weighing 200-225g. Compounds were dosed at 3 mg/kg (IV) and 30 mg/kg (PO). Unless otherwise noted, compounds were dissolved in 0.9% saline for IV dosing and 100% sterile water for PO dosing. Pharmacokinetic parameters were determined using Phoenix WinNonlin (v7.0). […]

[5] = male, Sprague-Dawley, in vivo, IV 3 mg/kg, 0.9% saline
[6] = male, Sprague-Dawley, in vivo, PO 30 mg/kg, sterile water

For `CCOC(=O)NC12CC(C(F)(F)F)(C1)C2` [Compound 24, Ethyl (3-(trifluoromethyl)bicyclo[1.1.1]pentan-1-yl)carbamate], the “Early Phase, seconds of paw licking” value (male ICR mice) was “A (<70 seconds of paw licking)” and the “Late Phase, seconds of paw licking” value (male ICR mice) was “B (>70 and <165 seconds of paw licking)”.
For `NC12CC(C(F)(F)F)(C1)C2` [Compound 28, 3-(trifluoromethyl)bicyclo[1.1.1]pentan-1-amine hydrochloride], the inhibition at 100 µM (Opiate μ; 100 μM) was 3%, the “cumulative pain score, 4 h” value (male Sprague-Dawley rats [1]; 10 mg/kg) was “C (>16)” and the “cumulative pain score, 24 h” value (male Sprague-Dawley rats [1]; 10 mg/kg) was “C (>16)”. For the same molecule, the “cumulative pain score, 4 h” value (male Sprague-Dawley rats [1]; 30 mg/kg) was “B (>11 and ≤16)”, the “cumulative pain score, 24 h” value (male Sprague-Dawley rats [1]; 30 mg/kg) was “B (>11 and ≤16)” and the “cumulative pain score, 4 h” value (male Sprague-Dawley rats [1]; 100 mg/kg) was “B (>11 and ≤16)”. The “cumulative pain score, 24 h” value (male Sprague-Dawley rats [1]; 100 mg/kg) was “A (a cumulative pain score of ≤11)”, the “least preferred (drug associated) chamber residence time” value (shortened to “least preferred”) (adult male C57BL/6 mice; mouse, in vivo, ip) was “no increase” and the inhibition at 100 µM (Opiate κ; 100 μM) was 1%. For the same molecule, the inhibition at 100 µM (Opiate δ2; 100 μM) was 2%.
With `CC(=O)Nc1ccc(O)cc1` [Acetaminophen, reference compound] the inhibition at 10 µM (Opiate μ; 10 μM) was -5%, the “least preferred” value (adult male C57BL/6 mice; mouse, in vivo, ip) was “no increase” and the inhibition at 10 µM (Opiate κ; 10 μM) was -1%. The inhibition at 10 µM (COX-1; read-out: % Inhibition, COX-1 (human)) was -7%, the inhibition at 10 µM (Opiate δ1) was 2% and the “paw withdrawal latency, 1 h” value (male Sprague-Dawley rats [2]; 1 h after dosing) was “A (>8 seconds of paw withdrawal latency)”. The “paw withdrawal latency, 2 h” value (male Sprague-Dawley rats [2]; 2 h after dosing) was “A (>8 seconds of paw withdrawal latency)”, the “paw withdrawal latency, 4 h” value (male Sprague-Dawley rats [2]; 4 h after dosing) was “A (>8 seconds of paw withdrawal latency)” and the inhibition at 10 µM (COX-2; read-out: % Inhibition, COX-2 (human)) was 3%.
For `CC(C)[C@H](N)C(=O)NC12CC(C(F)(F)F)(C1)C2` [Compound 23, (S)-2-Amino-3-methyl-N-(3-(trifluoromethyl)bicyclo[1.1.1]pentan-1-yl)butanamide hydrochloride], the “Early Phase, seconds of paw licking” value (male ICR mice) was “A (<70 seconds of paw licking)” and the “Late Phase, seconds of paw licking” value (male ICR mice) was “C (>165 seconds of paw licking)”.
In the case of `CN1CC[C@]23c4c5ccc(O)c4O[C@H]2[C@@H](O)C=C[C@H]3[C@H]1C5` [morphine, reference compound], the “least preferred” value (adult male C57BL/6 mice; mice, IP, drug pairing 4 consecutive days, assessed on day 9) is reported as “significant increase” and the “least preferred” value (adult male C57BL/6 mice; mice, IP, drug pairing 4 consecutive days, assessed on day 14) is reported as “significant increase”.
For `Cl.NC12CC(c3cccc(C(F)(F)F)n3)(C1)C2` [Compound 13, 3-(6-(Trifluoromethyl)pyridin-2-yl)bicyclo[1.1.1]pentan-1-amine hydrochloride], the inhibition at 200 µM (Opiate μ; 200 μM) was 56%, the “Early Phase, seconds of paw licking” value (male Sprague-Dawley rats [3]; early/acute phase (0-10 minutes)) was “A (<70 seconds of paw licking)” and the “Late Phase, seconds of paw licking” value (male Sprague-Dawley rats [3]; late/tonic phase (10-35 minutes)) was “A (<70 seconds of paw licking)”. For the same molecule, the inhibition at 200 µM (Opiate κ; 200 μM) was 33%, the inhibition at 200 µM (COX-1; 200 μM) was 6% and the inhibition at 200 µM (COX-2; 200 μM) was 8%. For the same molecule, the inhibition at 200 µM (Opiate δ2; 200 μM) was 6%, the F ([4]; PO 30 mg/kg vs IV 3 mg/kg) was 16% and the AUC(0-inf) [4, 5] was 3 µM·h. For the same molecule, the clearance [4, 5] was 73 mL/min/kg, the half-life [4, 5] was 9.5 h and the Vd ([4]; male, Sprague-Dawley, in vivo, IV 3 mg/kg, 0.9% saline, read-out: Vdss) was 20.2 L/kg. The AUC(0-inf) [4, 6] was 35 µM·h, the Cmax [4, 6] was 11 µM and the Tmax [4, 6] was 0.6 h. The half-life [4, 6] was 6.8 h.
